How the values were obtained:
GRK5 = target: T1, GRK5 (Homo sapiens, UniProt P34947); experiment: Lance Kinase Activity Assay, GRK5; conditions: biochemical Lance kinase activity assay; class symbols A-F; read-out: GRK5 LANCE Assay (IC-50)
T1 construct: purchased Thermo Scientific
Description: (§1) This protocol describes how the Lance Kinase Activity Assay was performed to determine IC50 values of compounds of general formula (I) against GRK5 and GRK2.
(§2) The principle behind this enzymatic assay is based upon the phosphorylation of the Ulight-peptide substrate. It is detected by using a specific EU-labeled anti-phospho peptide antibody. The binding of the Eu labeled anti-phospho peptide antibody to the phosphorylated ULight labeled peptide gives rise to a FRET-signal. Binding of an inhibitor to the kinase prevents phosphorylation of the Ulight-substrate, resulting in a loss of FRET. In tables 2 and 3 the relevant information for these two LANCE assays is summarized.
(§3) For every sample, 2 μl of assay buffer (50 mM HEPES pH 7,5, 10 mM MgCL2, 1 mM EGTA 0,01% Tween 20, 1% DMSO, 2 mM DTT) were transferred into a suitable assay plate (e.g. Corning #3673). Compounds were added in a concentration range from 10 μM to 0.0025 μM using an acoustic dispenser (Echo520 from Labcycte, San Jose, USA) equipped with Echo Dose Response software. After that 6 μl of kinase-substrate mix was added. Reaction was started by addition of 2 μl ATP working solution and mixed using a Bioshake 5000 microplate shaker (Q Instruments, Jena, Germany).
(§4) After 1 h incubation at room temperature the reaction was stopped with 10 μl detection mix containing the Eu-labeled phosphospecific antibody and 10 mM EDTA. After a second incubation period of 1 h at room temperature the FRET signal was measured at 340 nm excitation, 665 nm and 615 nm emission (for the ULight-substrate and Eu-AB, respectively) with an Envision microplate reader (Perkin Elmer, Waltham, MA, USA) with 50 μs delay and 300 μs integration time. IC50 values were determined from the sigmoidal dose response curves with the software Quattro Workflow (Quattro GmbH, Munich, Germany).
(§5) Inhibition is indicated as IC50 [nM] (“−”=not measured). Compounds having an activity designated as “A” provided an IC50≤50 nM; compounds having an activity designated as “B” provided an 50 nM<IC50≤100 nM; compounds having an activity designated as “C” provided an 100 nM<IC50≤500 nM; compounds having an activity designated as “D” provided an 500 nM<IC50≤1000 nM; compounds having an activity designated as “E” provided an 1000 nM<IC50≤10000 nM; and compounds having an activity designated as “F” provided an IC50>10000 nM.

GRK2 = target: T2, GRK2 (Homo sapiens, UniProt P25098); experiment: Lance Kinase Activity Assay, GRK2; conditions: biochemical Lance kinase activity assay; class symbols A-F; read-out: GRK2 LANCE Assay (IC-50)
T2 construct: purchased Thermo Scientific
T2 sequence (P25098 1-689): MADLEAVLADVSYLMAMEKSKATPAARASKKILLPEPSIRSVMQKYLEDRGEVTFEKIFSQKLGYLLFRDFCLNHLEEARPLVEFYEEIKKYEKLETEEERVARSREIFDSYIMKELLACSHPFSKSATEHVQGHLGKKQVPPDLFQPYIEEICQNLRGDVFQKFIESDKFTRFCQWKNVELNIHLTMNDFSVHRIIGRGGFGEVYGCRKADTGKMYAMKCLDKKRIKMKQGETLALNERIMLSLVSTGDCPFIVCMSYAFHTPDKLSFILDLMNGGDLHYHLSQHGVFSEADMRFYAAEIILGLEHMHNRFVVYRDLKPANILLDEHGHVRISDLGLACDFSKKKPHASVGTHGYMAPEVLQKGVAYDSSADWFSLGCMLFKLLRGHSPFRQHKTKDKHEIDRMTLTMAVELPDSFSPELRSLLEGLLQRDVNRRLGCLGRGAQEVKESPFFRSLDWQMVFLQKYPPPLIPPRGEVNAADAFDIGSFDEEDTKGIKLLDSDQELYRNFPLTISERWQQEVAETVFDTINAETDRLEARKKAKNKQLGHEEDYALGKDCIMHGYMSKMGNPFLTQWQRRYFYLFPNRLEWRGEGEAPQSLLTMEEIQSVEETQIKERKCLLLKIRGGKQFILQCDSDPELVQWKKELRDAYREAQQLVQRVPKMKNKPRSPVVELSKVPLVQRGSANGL
Description: as §1, §2, §3, §4, §5

T1 sequence (P34947 whole entry): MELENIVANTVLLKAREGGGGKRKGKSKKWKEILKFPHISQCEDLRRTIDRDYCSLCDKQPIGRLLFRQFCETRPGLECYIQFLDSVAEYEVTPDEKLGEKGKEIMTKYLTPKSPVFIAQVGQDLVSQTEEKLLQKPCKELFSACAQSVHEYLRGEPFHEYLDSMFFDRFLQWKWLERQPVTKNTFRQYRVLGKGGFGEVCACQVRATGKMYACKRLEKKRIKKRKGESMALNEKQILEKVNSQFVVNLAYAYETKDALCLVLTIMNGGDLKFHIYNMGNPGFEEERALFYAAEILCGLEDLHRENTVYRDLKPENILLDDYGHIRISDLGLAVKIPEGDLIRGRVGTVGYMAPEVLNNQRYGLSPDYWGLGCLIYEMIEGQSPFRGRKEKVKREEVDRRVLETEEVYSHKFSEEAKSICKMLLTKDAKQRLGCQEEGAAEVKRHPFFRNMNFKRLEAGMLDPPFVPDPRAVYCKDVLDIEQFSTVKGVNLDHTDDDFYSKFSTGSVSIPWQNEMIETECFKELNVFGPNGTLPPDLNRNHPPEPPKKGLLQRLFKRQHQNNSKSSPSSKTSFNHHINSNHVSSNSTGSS

Row | Structure (SMILES) | IC50 (GRK5) | IC50 (GRK2)
1 | COc1ccc([C@@H](C)NC(=O)C(C#N)=Cc2c[nH]c3ncc(-c4ccc(CCN(C)C)cc4)cc23)cc1OC (stereo in doubt) [Example 135] | ≤ 50 nM | 1000 to 10000 nM
2 | C[C@@H](NC(=O)/C(C#N)=C/c1c[nH]c2ncccc12)c1cccc(F)c1 [Example 1, (R,E)-2-cyano-N-(1-(3-fluorophenyl)ethyl)-3-(1H-pyrrolo[2,3-b]pyridin-3-yl)acrylamide] | 100 to 500 nM | 100 to 500 nM
3 | O=C(/C=C/c1c[nH]c2ncc(Cl)cc12)NCc1ccccc1 [Example 6, (E)-N-benzyl-3-(5-chloro-1H-pyrrolo[2,3-b]pyridin-3-yl)acrylamide] | 100 to 500 nM | 1000 to 10000 nM
4 | O=C(/C=C/c1c[nH]c2ncc(Cl)cc12)NCc1cccc(F)c1 [Example 7, (E)-3-(5-chloro-1H-pyrrolo[2,3-b]pyridin-3-yl)-N-(3-fluorobenzyl)acrylamide] | 100 to 500 nM | 1000 to 10000 nM
5 | O=C(/C=C/c1c[nH]c2nccc(Cl)c12)NCc1cccc(F)c1 [Example 8, (E)-3-(4-chloro-1H-pyrrolo[2,3-b]pyridin-3-yl)-N-(3-fluorobenzyl)acrylamide] | 1000 to 10000 nM | 500 to 1000 nM
6 | CC(NC(=O)/C=C/c1c[nH]c2ncccc12)c1ccc(F)cc1 (stereo not drawn) [Example 10, (E)-N-(1-(4-fluorophenyl)ethyl)-3-(1H-pyrrolo[2,3-b]pyridin-3-yl)acrylamide] | 1000 to 10000 nM | 1000 to 10000 nM
7 | COc1ccc([C@@H](C)NC(=O)/C=C/c2c[nH]c3ncc(Br)cc23)cc1OC [Example 11, (R,E)-3-(5-bromo-1H-pyrrolo[2,3-b]pyridin-3-yl)-N-(1-(3,4-dimethoxyphenyl)ethyl)acrylamide] | ≤ 50 nM | 1000 to 10000 nM
8 | C[C@@H](NC(=O)/C(C#N)=C/c1c[nH]c2ncccc12)c1ccccc1Cl [Example 12, (R,E)-N-(1-(2-chlorophenyl)ethyl)-2-cyano-3-(1H-pyrrolo[2,3-b]pyridin-3-yl)acrylamide] | 100 to 500 nM | 500 to 1000 nM
9 | C[C@@H](NC(=O)/C(C#N)=C/c1c[nH]c2ncccc12)c1cccc(Cl)c1 [Example 13, (R,E)-N-(1-(3-chlorophenyl)ethyl)-2-cyano-3-(1H-pyrrolo[2,3-b]pyridin-3-yl)acrylamide] | 50 to 100 nM | 100 to 500 nM
10 | N#C/C(=C\c1c[nH]c2ncccc12)C(=O)N[C@@H](c1ccccc1)C(F)(F)F [Example 14, (S,E)-2-cyano-3-(1H-pyrrolo[2,3-b]pyridin-3-yl)-N-(2,2,2-trifluoro-1-phenylethyl)acrylamide] | 500 to 1000 nM | 1000 to 10000 nM
11 | COc1ccc([C@@H](C)NC(=O)/C(C#N)=C/c2c[nH]c3ncccc23)cc1OC [Example 15, (R,E)-2-cyano-N-(1-(3,4-dimethoxyphenyl)ethyl)-3-(1H-pyrrolo[2,3-b]pyridin-3-yl)acrylamide] | 50 to 100 nM | 1000 to 10000 nM
12 | C[C@@H](NC(=O)/C(C#N)=C/c1c[nH]c2ncccc12)c1ccc(F)c(F)c1 [Example 16, (R,E)-2-cyano-N-(1-(3,4-difluorophenyl)ethyl)-3-(1H-pyrrolo[2,3-b]pyridin-3-yl)acrylamide] | 50 to 100 nM | 50 to 100 nM
13 | C[C@@H](NC(=O)/C(C#N)=C/c1c[nH]c2ncccc12)c1ccc(F)cc1F [Example 17, (R,E)-2-cyano-N-(1-(2,4-difluorophenyl)ethyl)-3-(1H-pyrrolo[2,3-b]pyridin-3-yl)acrylamide] | 100 to 500 nM | 100 to 500 nM
14 | C[C@@H](NC(=O)/C(C#N)=C/c1c[nH]c2ncccc12)c1cccc(C(F)(F)F)c1 [Example 18, (R,E)-2-cyano-3-(1H-pyrrolo[2,3-b]pyridin-3-yl)-N-(1-(3-(trifluoromethyl)phenyl)ethyl)acrylamide] | 100 to 500 nM | 500 to 1000 nM
15 | COc1ccc([C@@H](C)NC(=O)/C(C#N)=C/c2c[nH]c3ncccc23)cc1 [Example 19, (R,E)-2-cyano-N-(1-(4-methoxyphenyl)ethyl)-3-(1H-pyrrolo[2,3-b]pyridin-3-yl)acrylamide] | 100 to 500 nM | 1000 to 10000 nM
16 | C[C@@H](NC(=O)/C(C#N)=C/c1c[nH]c2ncccc12)c1ccc(Cl)c(Cl)c1 [Example 20, (R,E)-2-cyano-N-(1-(3,4-dichlorophenyl)ethyl)-3-(1H-pyrrolo[2,3-b]pyridin-3-yl)acrylamide] | 100 to 500 nM | 100 to 500 nM
17 | N#C/C(=C\c1c[nH]c2ncccc12)C(=O)NCc1ccc(S(N)(=O)=O)cc1 [Example 21, (E)-2-cyano-3-(1H-pyrrolo[2,3-b]pyridin-3-yl)-N-(4-sulfamoylbenzyl)acrylamide] | 1000 to 10000 nM | > 10000 nM
18 | Cc1ccc(Br)cc1CNC(=O)/C(C#N)=C/c1c[nH]c2ncccc12 [Example 23, (E)-N-(5-bromo-2-methylbenzyl)-2-cyano-3-(1H-pyrrolo[2,3-b]pyridin-3-yl)acrylamide] | 1000 to 10000 nM | > 10000 nM
19 | CN(C)c1ccc(CNC(=O)/C(C#N)=C/c2c[nH]c3ncccc23)cc1 [Example 24, (E)-2-cyano-N-(4-(dimethylamino)benzyl)-3-(1H-pyrrolo[2,3-b]pyridin-3-yl)acrylamide] | 1000 to 10000 nM | > 10000 nM
20 | CN(C)c1ccccc1CNC(=O)/C(C#N)=C/c1c[nH]c2ncccc12 [Example 25, (E)-2-cyano-N-(2-(dimethylamino)benzyl)-3-(1H-pyrrolo[2,3-b]pyridin-3-yl)acrylamide] | 1000 to 10000 nM | > 10000 nM
21 | N#C/C(=C\c1c[nH]c2ncccc12)C(=O)NCc1ccc(C#N)cc1 [Example 26, (E)-2-cyano-N-(4-cyanobenzyl)-3-(1H-pyrrolo[2,3-b]pyridin-3-yl)acrylamide] | 1000 to 10000 nM | 1000 to 10000 nM
22 | N#C/C(=C\c1c[nH]c2ncccc12)C(=O)NCc1cccc(CS(N)(=O)=O)c1 [Example 27, (E)-2-cyano-3-(1H-pyrrolo[2,3-b]pyridin-3-yl)-N-(3-(sulfamoylmethyl)benzyl)-acrylamide] | 1000 to 10000 nM | 1000 to 10000 nM
23 | N#C/C(=C\c1c[nH]c2ncccc12)C(=O)NCc1cccc(C(N)=O)c1 [Example 28, (E)-3-((2-cyano-3-(1H-pyrrolo[2,3-b]pyridin-3-yl)acrylamido)methyl)benzamide] | 500 to 1000 nM | 100 to 500 nM
24 | CS(=O)(=O)Nc1cccc(CNC(=O)/C(C#N)=C/c2c[nH]c3ncccc23)c1 [Example 29, (E)-2-cyano-N-(3-(methylsulfonamido)benzyl)-3-(1H-pyrrolo[2,3-b]pyridin-3-yl)acrylamide] | 500 to 1000 nM | 100 to 500 nM
25 | CN(C)c1cccc(CNC(=O)/C(C#N)=C/c2c[nH]c3ncccc23)c1 [Example 30, (E)-2-cyano-N-(3-(dimethylamino)benzyl)-3-(1H-pyrrolo[2,3-b]pyridin-3-yl)acrylamide] | 1000 to 10000 nM | > 10000 nM
26 | N#C/C(=C\c1c[nH]c2ncccc12)C(=O)NCc1cccc(C#N)c1 [Example 31, (E)-2-cyano-N-(3-cyanobenzyl)-3-(1H-pyrrolo[2,3-b]pyridin-3-yl)acrylamide] | 500 to 1000 nM | 1000 to 10000 nM
27 | N#C/C(=C\c1c[nH]c2ncccc12)C(=O)NC(CO)c1ccccc1 (stereo not drawn) [Example 32, (E)-2-cyano-N-(2-hydroxy-1-phenylethyl)-3-(1H-pyrrolo[2,3-b]pyridin-3-yl)acrylamide] | 50 to 100 nM | 50 to 100 nM

Source: patent US20240294522A1 (Lead Discovery Center GmbH, priority 2021, published 2024)
